# Where a name gives a salt, the structure may show the parent alone.
# Target: T1, protein farnesyltransferase (Rattus norvegicus, UniProt Q02293+Q04631)
# T1 construct: Rat brain protein farnesyltransferase activity is measured; from tissue; host or cells: rat brain; purified according to Reiss et al., Cell 62:81-88 (1990), steps one through three
# Experiment: in vitro inhibition of protein farnesyltransferase (scintillation proximity assay, biotin-K Ras B fragment)
# Assay type: biochemical
# Details: at 1 × 10^-5 M
# How it was run: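 Rat brain enzyme, purified through three steps, in a scintillation proximity assay kit with biotin-K Ras B fragment substrate at 0.1 mM final. Value is % inhibition of farnesylation.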
row,inhibition at 10 µM,Compound
1,44%,CSCC[C@H](NC(=O)c1ccc(CNCC(C)(C)CN(C)C)cc1-c1ccccc1)C(=O)O [Example 639]
2,55%,COc1cc2c(cc1OC)C(CNCc1ccc(C(=O)N[C@@H](CCSC)C(=O)O)c(-c3ccccc3)c1)=CC(C1CCCCC1)C2 (some centres unmarked) [Example 659]
3,43%,CSCC[C@H](NC(=O)c1ccc(CNCCC2CCCCC2)cc1-c1ccccc1)C(=O)O [Example 663]
4,75%,C=C[C@@H](CC1CCCCC1)NCc1ccc(C(=O)N[C@@H](CCSC)C(=O)O)c(-c2ccccc2)c1 [Example 664]

# Same assay, conditions: at 1 × 10^-6 M
row,% inhibition of farnesyltransferase,Compound
1,32%,CSCCC(NC(=O)c1ccc(CNC(CO)c2ccccc2)cc1-c1ccccc1)C(=O)O (centres unmarked) [Example 657]
2,73%,CSCCC(NC(=O)c1ccc(CNC(CO)c2ccccc2)cc1-c1ccccc1)C(=O)O (centres unmarked) [Example 658]

# Same assay, conditions: at 1 × 10^-6 M; read-out: % inhibition of farnesyltransferase
row,Compound,inhibition at 1 µM
1,"CSCC[C@H](NC(=O)c1ccc(CNCCC2CCCCC2)cc1-c1ccccc1C)C(=O)O [Example 607, N-[4-(N-2-cyclohexylethylaminomethyl)-2-(2-methylphenyl)benzoyl]methionine Trifluoroacetate Salt]",96%
2,"CSCC[C@H](NC(=O)c1ccc(CN(CCC2CCCCC2)C(=O)N(C)C)cc1-c1ccccc1C)C(=O)O [Example 610, N-[4-(N-(N,N-dimethylaminocarbonyl)-N-(2-cyclohexylethyl)aminomethyl)-2-(2-methylphenyl)benzoyl]methionine]",94%
3,"CSCC[C@H](NC(=O)c1ccc(CN[C@H](C)CC2CCCCC2)cc1-c1ccccc1C)C(=O)O [Example 613, N-[4-(3-cyclohexylpropan-2-ylaminomethyl)-2-(2-methylphenyl)benzoyl]methionine]",97%
4,"CSCC[C@H](NC(=O)c1ccc(CN[C@H](CO)CC2CCCCC2)cc1-c1ccccc1C)C(=O)O [Example 617, N-[4-(3-cyclohexylpropan-1-ol-2-ylaminomethyl)-2-(2-methylphenyl)benzoyl]methionine]",99%
5,"CCS(=O)(=O)C[C@H](CC1CCCCC1)NCc1ccc(C(=O)N[C@@H](CCSC)C(=O)O)c(-c2ccccc2C)c1 [Example 620, N-[4-(3-cyclohexyl-1-ethylsulfonylpropan-2-ylaminomethyl)-2-(2-methylphenyl)benzoyl]methionine Lithium Salt]",98%
6,CSCC[C@H](NC(=O)c1ccc(CNCCS)cc1-c1ccccc1)C(=O)O [Example 626],61%
7,CSCC[C@H](NC(=O)c1ccc(CNCCSC(C)(C)C)cc1-c1ccccc1)C(=O)O [Example 627],85%
8,CSCC[C@H](NC(=O)c1ccc(CNCC(O)CO)cc1-c1ccccc1)C(=O)O (some centres unmarked) [Example 632],43%
9,CSCCC(CO)NCc1ccc(C(=O)N[C@@H](CCSC)C(=O)O)c(-c2ccccc2)c1 (some centres unmarked) [Example 633],32%
10,CSCC[C@H](NC(=O)c1ccc(CNCCN(C(C)C)C(C)C)cc1-c1ccccc1)C(=O)O [Example 636],72%
11,CSCC[C@H](NC(=O)c1ccc(CNCCN2CCCC2)cc1-c1ccccc1)C(=O)O [Example 641],34%

# More lines, now with the values ahead:
row,inhibition at 1 µM,Compound
1,48%,CSCC[C@H](NC(=O)c1ccc(CNc2ccccc2F)cc1-c1ccccc1)C(=O)O [Example 642]
2,54%,CSCC[C@H](NC(=O)c1ccc(CNc2ccccc2C(N)=O)cc1-c1ccccc1)C(=O)O [Example 644]
3,37%,CSCC[C@H](NC(=O)c1ccc(CNc2ccccc2Oc2ccccc2)cc1-c1ccccc1)C(=O)O [Example 645]
4,58%,CCOC(=O)c1ccc(NCc2ccc(C(=O)N[C@@H](CCSC)C(=O)O)c(-c3ccccc3)c2)cc1 [Example 646]
5,86%,CSCC[C@H](NC(=O)c1ccc(CN(CCC#N)Cc2ccccc2)cc1-c1ccccc1)C(=O)O [Example 649]
6,68%,COc1ccccc1CNCc1ccc(C(=O)N[C@@H](CCSC)C(=O)O)c(-c2ccccc2)c1 [Example 650]
7,41%,COc1cccc(CNCc2ccc(C(=O)N[C@@H](CCSC)C(=O)O)c(-c3ccccc3)c2)c1 [Example 652]
8,62%,CSCC[C@H](NC(=O)c1ccc(CNCc2ccc(N)cc2)cc1-c1ccccc1)C(=O)O [Example 653]
9,35%,COc1ccc(CNCc2ccc(C(=O)N[C@@H](CCSC)C(=O)O)c(-c3ccccc3)c2)c(OC)c1 [Example 655]
10,45%,CSCC[C@H](NC(=O)c1ccc(CNCC(O)c2cccc(O)c2)cc1-c1ccccc1)C(=O)O (some centres unmarked) [Example 661]
11,68%,CSCC[C@H](NC(=O)c1ccc(CNC(CO)Cc2ccc(Cl)cc2)cc1-c1ccccc1)C(=O)O (some centres unmarked) [Example 662]
12,55%,CSCC[C@H](NC(=O)c1ccc(CN[C@@H](/C=C\CC(C)C)CC2CCCCC2)cc1-c1ccccc1)C(=O)O [Example 665]

# Same assay, conditions: at 1 × 10^-7 M
row,% inhibition of farnesyltransferase,Compound
1,93%,CSCC[C@H](NC(=O)c1ccc(COCCCCC2CCCCC2)cc1-c1ccccc1C)C(=O)O [Example 600]
2,92%,CSCC[C@H](NC(=O)c1ccc(COCCCCc2ccccc2)cc1-c1ccccc1C)C(=O)O [Example 601]

# Same assay, conditions: at 1 × 10^-7 M; read-out: % inhibition of farnesyltransferase
row,inhibition at 0.1 µM,Compound
1,86%,"CSCC[C@H](NC(=O)c1ccc(CN[C@@H](CO)C2CCCCC2)cc1-c1ccccc1C)C(=O)O [Example 604, N-[4-(2-cyclohexylethan-1-ol-2-ylaminomethyl)-2-(2-methylphenyl)benzoyl]methionine Lithium Salt]"
2,95%,"CSCC[C@H](NC(=O)c1ccc(CN(CCC2CCCCC2)S(C)(=O)=O)cc1-c1ccccc1C)C(=O)O [Example 611, N-[4-(N-(2-cyclohexylethyl)-N-methanesulfonylaminomethyl)-2-(2-methylphenyl)benzol]methionine Lithium Salt]"
3,94%,"CCCC[C@H](CC1CCCCC1)NCc1ccc(C(=O)N[C@@H](CCSC)C(=O)O)c(-c2ccccc2C)c1 [Example 615, N-[4-(6-cyclohexylhexan-5-ylaminomethyl)-2-(2-methylphenyl)benzoyl]methionine Lithium Salt]"
4,89%,"CSCC[C@H](NC(=O)c1ccc(CN[C@@H](CO)CC2CCCCC2)cc1-c1ccccc1C)C(=O)O [Example 618, N-[4-(3-cyclohexylpropan-1-ol-2-ylaminomethyl)-2-(2-methylphenyl)benzoyl]methionine Trifluoroacetate Salt]"
5,98%,"CCS(=O)(=O)C[C@H](CC1CCCCC1)NCc1ccc(C(=O)N[C@@H](CCS(C)(=O)=O)C(=O)O)c(-c2ccccc2C)c1 [Example 621, N-[4-(3-cyclohexyl-1-ethylsulfonylpropan-2-ylaminomethyl)-2-(2-methylphenyl)benzoyl]-2-amino-4-methanesulfonylbutanoic acid Lithium Salt]"
6,95%,"CSCC[C@H](NC(=O)c1ccc(CN[C@H](CSC(C)(C)C)CC2CCCCC2)cc1-c1ccccc1C)C(=O)O [Example 622, N-[4-(3-cyclohexyl-1-t-butylthiopropan-2-ylaminomethyl)-2-(2-methylphenyl)benzoyl]methionine Lithium Salt]"
7,96%,"CSCC[C@H](NC(=O)c1ccc(CN[C@H](CSc2ccccc2)CC2CCCCC2)cc1-c1ccccc1C)C(=O)O [Example 623, N-[4-(3-cyclohexyl-1-phenylthiopropan-2-ylaminomethyl)-2-(2-methylphenyl)benzoyl]methionine Lithium Salt]"

# Same assay, conditions: at 1 × 10^-8 M
row,Compound,% inhibition of farnesyltransferase
1,CSCC[C@H](NC(=O)c1ccc(COCCCC23CC4CC(CC(C4)C2)C3)cc1-c1ccccc1C)C(=O)[O-].[Li+] [Example 599],86%
2,CCSC[C@H](CC1CCCCC1)OCc1ccc(C(=O)N[C@@H](CCSC)C(=O)O)c(-c2ccccc2C)c1 [Example 606],93%

# Same assay, conditions: at 1 × 10^-8 M; read-out: % inhibition of farnesyltransferase
row,inhibition at 0.01 µM,Compound
1,96%,"CSCC[C@H](NC(=O)c1ccc(CN(CCC2CCCCC2)S(=O)(=O)c2ccccc2)cc1-c1ccccc1C)C(=O)O [Example 612, N-[4-(N-benzenenesulfonyl-N-(2-cyclohexylethyl)aminomethyl)-2-(2-methylphenyl)benzoyl]methionine Lithium Salt]"
2,92%,"CC[C@H](CC1CCCCC1)NCc1ccc(C(=O)N[C@@H](CCSC)C(=O)O)c(-c2ccccc2C)c1 [Example 614, N-[4-(4-cyclohexylbutan-3-ylaminomethyl)-2-(2-methylphenyl)benzoyl]methionine Lithium Salt]"
3,95%,"C=C[C@H](CC1CCCCC1)NCc1ccc(C(=O)N[C@@H](CCSC)C(=O)O)c(-c2ccccc2C)c1 [Example 619, N-[4-(2-cyclohexylprop-1-en-2-ylaminomethyl)-2-(2-methylphenyl)benzoyl]methionine Lithium Salt]"

# Same assay, conditions: read-out: % inhibition of farnesyltransferase
Compound,inhibition at 0.01 µM,inhibition at 0.1 µM
"CSCC[C@H](NC(=O)c1ccc(CN(CCC2CCCCC2)Cc2ccccc2)cc1-c1ccccc1C)C(=O)O [Example 605, N-[4-(N-benzyl-N-(2-cyclohexylethyl)aminomethyl)-2-(2-methylphenyl)benzoyl]methionine Lithium Salt]",68%,
"CSCC[C@H](NC(=O)c1ccc(CN(C)CCC2CCCCC2)cc1-c1ccccc1C)C(=O)O [Example 608, N-[4-(N-(2-cyclohexylethyl)-N-methylaminomethyl)-2-(2-methylphenyl)benzoyl]methionine Lithium Salt]",91%,
"CSCC[C@H](NC(=O)c1ccc(CN(CCC2CCCCC2)C(C)=O)cc1-c1ccccc1C)C(=O)O [Example 609, N-[4-(N-acetyl-N-(2-cyclohexylethyl)aminomethyl)-2-(2-methylphenyl)benzoyl]methionine Lithium Salt]",,95%
"CSCC[C@H](NC(=O)c1ccc(CNC(CC2CCCCC2)C2CCCCC2)cc1-c1ccccc1C)C(=O)O (some centres unmarked) [Example 616, N-[4-(1,2-dicyclohexylethylaminomethyl)-2-(2-methylphenyl)benzoyl]methionine Lithium Salt]",,95%

# Reference: patent US6310095A, “Inhibitors of protein isoprenyl transferases” (University of Pittsburgh, priority 1998, dated 2001)
